# Measured values: patent US9937227B2, “Humanin, analogs and cancer treatment methods and uses thereof” (LOS ANGELES BIOMEDICAL RESEARCH INSTITUTE AT HARBOR-UCLA …, priority 2014, dated 2018)
# Read-outs that look alike come from different tables or passages of the source.
# Experiments:
# male germ cells [1] = type: in vivo, mouse; conditions: middle stages
# Method: Onco-infertility is a major concern of cancer survivors. In this study, it was investigated whether HNG will prevent chemotherapy (Temozolomide, TMZ, an alkylating agent used clinically to treat brain tumors) induced male germ cell apoptosis in SCID mice bearing subcutaneous implants of human medulloblastoma. DAOY human pediatric medulloblastoma cells (1.0×10^8 cells/animal) were injected subcutaneously into the right flank of 7-week old male SCID mice. After 3 weeks to allow tumor growth, each group of mice (n=4 to 5/group) received one of the following treatments: 1) vehicle (control); 2) HNG intra-peritoneal (IP) injection (HNG, 5 mg/Kg BW/day, 3 days pretreatment +5 days treatment); 3) TMZ IP injection (TMZ, 50 mg/Kg BW/day×5 days); 4) TMZ and HNG IP injections (TMZ+HNG). Mice were sacrificed 24 hours after the last injection, subcutaneous tumors were dissected and weighed (FIG. 26) and male germ cell apoptosis was assessed by TUNEL staining and quantified (Apoptosis Index, AI, number of apoptotic germ cell/Sertoli cell, FIG. 27). […] HNG ameliorated TMZ-induced germ cell apoptosis without affecting the chemotherapeutic effect on transplanted medulloblastoma tumor in an immunocompromised mouse model.
# B16 melanoma cells = type: cell-based
# Source text: Furthermore, the autophagy induction of humanin may be related to its apparent effects of enhancing longevity observed in other systems.
# testosterone = conditions: with or without EDS pre-treatment
# male germ cells [2] = system: male germ cells
# Leydig cells [3] = assay: Histology of rat testes: Leydig cells; conditions: EDS for three days
# [4] = Table 1; cited from earlier work
# Leydig cells [5] = assay: Testosterone of cultured Leydig cells treated with ketoconazole; type: cell-based, rat; conditions: KTZ 10 mcg/ml, 4 hours
# Method: Leydig cells were isolated based on a previously described procedure (Gao, et al., 1996; Klinefelter, et al., 1987; Salva, et al., 2001). Briefly, the testes were decapsulated, and then dissociated with collagenase, dispase, DNase and shaking for 15 min at 34° C. The seminiferous tubules were removed by filtration through 40 μm nylon mesh (BD Falcon, Franklin Lakes, N.J.). Leydig cells were then harvested after centrifugation and purified using a Percoll gradient (GE Healthcare, Uppsala, Sweden) and centrifugation (60 minutes at 20,000 g at 4° C.). Enriched Leydig cells were harvested at densities between 1.065 (red) and 1.075 (blue) g/cm^3 from the percoll gradient. These Leydig cells were washed by diluting the percoll and excluding residual germ cells and other cells using a BSA density gradient with centrifugation. The purity of the Leydig cells was >90%, as determined by histochemical staining for 3β-hydroxysteroid dehydrogenase. The cell viability, as assessed by trypan blue exclusion, was greater than 90%. […]
# Testosterone concentrations in plasma, testes, and culture medium were measured by a previously described radioimmunoassay (Lue, et al., 2010) with a minimal detection limit of 0.1 ng/ml. […]
compound,measurement,setting,value
"Cn1nnc2c(C(N)=O)ncn2c1=O [TMZ, Temozolomide]","Apoptosis Index (AI, apoptotic germ cell/Sertoli cell)",male germ cells [1],0.058±0.006
CCN(CC)CCCC(C)Nc1ccnc2cc(Cl)ccc12 (centres unmarked) [chloroquine],"additive effect of humanin in doxorubicin treated B16 cells, with autophagy inhibitor",B16 melanoma cells,diminished
"CS(=O)(=O)OCCOS(C)(=O)=O [EDS, ethane dimethanesulfonate]",intratesticular testosterone levels,testosterone,decreased to very low levels
same,serum testosterone levels,testosterone,decreased to very low levels
same,germ cell apoptosis compared to control,"male germ cells [2]; early (I-VI) and late (IX-XIV) stages, EDS pre-treated",did not significantly increase
same,germ cell apoptosis compared to control,"male germ cells [2]; middle (VII-VIII) stages, EDS 80 mg/kg pre-treatment",significant acute cytotoxic effects
same,Leydig cells in the interstitial spaces compared to control,Leydig cells [3],depletion of Leydig cells
MAPRGASCLLLLTSEIDLPVKRRA [HN-F6A],Cytoprotective Action,[4],Similar/more effective
Cn1cnc(=N)c2[nH]cnc21 [3-MA],"additive effect of humanin in doxorubicin treated B16 cells, with autophagy inhibitor",B16 melanoma cells,diminished
"MAPRGFSALLLLTSEIDLPVKRRA [HN-C8A, HN mutant, Cys8 to Ala]",Cytoprotective Action,[4],"Not effective, prevents"
"CC(=O)N1CCN(c2ccc(OCC3COC(Cn4ccnc4)(c4ccc(Cl)cc4Cl)O3)cc2)CC1 (centres unmarked) [KTZ, ketoconazole]",testosterone levels compared to control,Leydig cells [5],lowered the testosterone levels significantly
